From patent publication US20240287081A1, “PERFLUOROALKANE SUBSTITUTED PYRAZOLO[3,4-D]PYRIMIDIN AND PYRROLO[2,3-D]PYRIMIDIN COMPOUNDS AND USES THEREOF” (ICAHN SCHOOL OF MEDICINE AT MOUNT SINAI, priority 2021, published 2024)

What was measured:
[1] = test system: HCC tumor organoids, BC (B-Catenin); assay: 3D HCC tumor organoid viability, BC model; type: cell-based; settings: 5.0 μM, viability three days post drug administration
Protocol: (§1) For assays in HCC tumor organoids, 96 well plates were first coated with a 50:50 solution of basal media:Matrigel ([…]), which polymerized for 15 minutes at 37° C. Tumor organoids were taken out of Matrigel, broken, and washed. Tumor organoids were seeded at 1,000 cells per well and were treated the following day with single doses of drugs in technical triplicate. Final DMSO concentrations were kept below 0.5%. Cell viability was measured three days post drug administration with either luminescence from CellTiter-Glo or absorbance at 560 and 590 nm from resazurin. Viability data was analyzed by normalizing individual drug-treated well values to DMSO-treated wells (BC=B-Catenin; SR=sorafenib resistant). Results of 3D HCC cell line data for pyrazolo- and pyrrolopyrimidine compounds at 0.5 μm (FIGS. 22A-F), 0.05 μm (FIGS. 23A-F), and 5.0 μm (FIGS. 24A-F) were obtained. […] In the BC model, at 5.0 μM, the top ten compounds were: APS-8-100-4, APS-8-52-3, APS-8-51-4, APS-7-25-2, APS-8-100-3, APS-8-51-3, APS-8-50-4, APS-8-52-4, and APS-7-38. In the SR model, at 5.0 μM, the top ten compounds were: APS-8-51-3, APS-8-50-4, APS-8-51-4, APS-8-52-3, APS-8-50-3, APS-7-52-2, APS-8-52-4, APS-7-52-1, and APS-8-100-4.

[2] = test system: ptc>dRet^M955T flies; assay: Fly rescue assay (Drosophila MTC model ptc>dRet^M955T); type: in vivo; settings: compound in fly food; for rescue (percent viability of adult flies, adults/pupae×100): 13 d at 25° C., baseline viability 0%
Protocol: Kinase-mutated fly stocks were obtained from Bloomington Drosophila Stock Center (BDSC; Bloomington, IN). The active mutant form of Drosophila Ret (dRet^955T) carries an M955T mutation corresponding to the M918T mutation commonly reported for multiple endocrine neoplasia (MEN) type 2B patients12,14,16,34. The ptc-gal4, UAS-GFP;UAS-dRet^M955T/SM5tub-gal80-TM6B transgenic flies were prepared according to standard protocols and crossed with non-transgenic w-flies (BDSC) to generate ptc-gal4, UAS-GFP; UAS-dRet^M955T(ptc>dRet^M955T) flies for chemical screening.
All drugs were synthesized in-house. All compounds were dissolved in DMSO (Sigma-Aldrich; St. Louis, MO) and mixed with semi-defined fly medium (BDSC) to make drug food (0.1% final DMSO concentration). For drug screening, ptc>dRet^M955T embryos were raised until adulthood on drug food for 13 d at 25° C. The number of empty pupal cases (i.e., adults) ? that of total pupal cases (P) to determine % viability. Fly randomization was used throughout the assays.
In this model, compounds are assessed based on their ability to suppress oncogenic Ret^M955T-induced tumors, which can be quantified as ‘rescue’ from lethality. […] The baseline viability of ptc>Ret^1955T flies was calibrated to zero, which creates a high bar for rescue but also reduces false-positive hits. Hundreds of flies are tested per condition (typical n values are […] administered through fly food.

[3] = test system: HCC tumor organoids, SR (sorafenib resistant); assay: 3D HCC tumor organoid viability, SR model; type: cell-based; settings: 5.0 μM, viability three days post drug administration
Protocol: as §1

[4] = test system: AKSP CRC tumoroid line; assay: 3D CRC tumoroid viability, AKSP model; type: cell-based, mice; settings: at 5.0 μM, viability after 72 hours
Protocol: To model different stages of colorectal cancer (CRC), intestinal organoids were derived from genetically engineered mice with the following genotypes Apc^flx/flx (A) and Apc^flx/flx Kra^LSL-G12D Smad4^flx/flx (AKS) and transformed ex vivo by addition of 100 nM 4-OHT for 24 hours. Once the organoids acquired a spheroid morphology characteristic of CRC Tumoroids, trp53 was knocked out in AKS tumoroids using CRISPR-CAS9 technology to generate the AKSP line. CRC tumoroid lines as well as wild type intestinal organoids were seeded onto Matrigel in 96 well plates in triplicates 16 hours before being treated with the indicated compounds at a final concentration of 0.5 μM. 72 hours later, cell viability was assessed using Titerglo® assay. Results of 3D CRC organoid line data for pyrazolo- and pyrrolopyrimidine compounds at 0.5 μm were obtained (FIGS. 25A-G). […] In the AKSP model, at 5.0 μM, the top ten compounds were: APS-8-35-3, APS-8-35-4, APS-6-87, APS-9-3, AD80, APS-8-85-2, APS-8-51-3, APS-9-2, and APS-8-56-4.

[5] = test system: RET (WT and M918T); assay: NanoBRET cell based target engagement assay; settings: RET-Nluc in HEK 293T cells, pyrazolo- and pyrrolopyrimidine series
Protocol: Assays were completed in duplicate. […] FIG. 8D is a graph of the cell-based target engagement for the indicated compounds against wild-type and M918T RET. IC50 values were determined based on 8-point titration curves of free ligand. Competition assays were completed in technical triplicate against full-length human RET-Nluc expressed in 293T cells, complexed with an active-site fluorescent tracer.
In this assay, a bioluminescence resonance energy transfer (BRET) signal is generated between nanoLuciferase tagged RET (expressed in HEK 293T cells) and an active-site based fluorescent tracer. […] Using this assay, in vivo binding was determined for a series of compounds against mutant (M918T) and wild-type RET (FIG. 8D).

Compound | ranking by inhibition of cell proliferation, BC model [1] | ranking by inhibition of cell proliferation, SR model [3] | ranking by inhibition of cell proliferation, AKSP model [4] | other results
CC(C)n1cc(-c2ccc(NC(=O)Nc3ccc(C(F)(F)C(F)(F)C(F)(F)F)cc3)cc2)c2c(N)ncnc21.O=C(O)C(F)(F)F [APS-8-51-4, 1-(4-(4-Amino-7-isopropyl-7H-pyrrolo[2,3-d]pyrimidin-5-yl)phenyl)-3-(4-(perfluoropropyl)phenyl)urea 2,2,2-trifluoroacetate] | top ten | top ten | – | rescue activity in the fly model, in words [2]: exceptional in vivo activity; rescue (percent viability of adult flies, adults/pupae×100) [2]: 100%
CC(C)n1cc(-c2ccc(NC(=O)Nc3cccc(C(F)(F)F)c3)cc2)c2c(N)ncnc21 [APS-9-2, 1-(4-(4-Amino-7-isopropyl-7H-pyrrolo[2,3-d]pyrimidin-5-yl)phenyl)-3-(3-(trifluoromethyl)phenyl)urea] | – | – | top ten | –
CC(C)n1cc(-c2ccc(NC(=O)Nc3ccc(C(F)(F)F)cc3)cc2)c2c(N)ncnc21 [APS-8-85-2, 1-(4-(4-Amino-7-isopropyl-7H-pyrrolo[2,3-d]pyrimidin-5-yl)phenyl)-3-(4-(trifluoromethyl)phenyl)urea] | – | – | top ten | –
CC(C)n1cc(-c2ccc(NC(=O)Nc3cc(C(F)(C(F)(F)F)C(F)(F)C(F)(F)F)ccc3F)cc2)c2c(N)ncnc21 (centres unmarked) [APS-8-35-4, 1-(4-(4-Amino-7-isopropyl-7H-pyrrolo[2,3-d]pyrimidin-5-yl)phenyl)-3-(2-fluoro-5-(perfluorobutan-2-yl)phenyl)urea 2,2,2-trifluoroacetate] | – | – | top ten | –
CC(C)n1cc(-c2ccc(NC(=O)Nc3cccc(C(F)(F)C(F)(F)F)c3)cc2)c2c(N)ncnc21 [APS-9-3, 1-(4-(4-Amino-7-isopropyl-7H-pyrrolo[2,3-d]pyrimidin-5-yl)phenyl)-3-(3-(perfluoroethyl)phenyl)urea 2,2,2-trifluoroacetate] | – | – | top ten | –
CC(C)n1cc(-c2ccc(NC(=O)Nc3cc(C(F)(F)F)ccc3F)cc2)c2c(N)ncnc21 [APS-6-87, 1-(4-(4-Amino-7-isopropyl-7H-pyrrolo[2,3-d]pyrimidin-5-yl)phenyl)-3-(2-fluoro-5-(trifluoromethyl)phenyl)urea] | – | – | top ten | –
CC(C)n1cc(-c2ccc(NC(=O)Nc3ccc(C(F)(F)C(F)(F)F)cc3)cc2)c2c(N)ncnc21 [APS-8-100-4, 1-(4-(4-Amino-7-isopropyl-7H-pyrrolo[2,3-d]pyrimidin-5-yl)phenyl)-3-(4-(perfluoroethyl)phenyl)urea] | top ten | top ten | – | cellular IC50 against RET, ranking in words [5]: lowest IC50 values among the para-substituted compounds tested; rescue activity in the fly model, in words [2]: exceptional in vivo activity; rescue (percent viability of adult flies, adults/pupae×100) [2]: 100%
CC(C)n1cc(-c2ccc(NC(=O)Nc3ccc(C(F)(C(F)(F)F)C(F)(F)F)cc3)cc2)c2c(N)ncnc21 [APS-8-50-4, 1-(4-(4-Amino-7-isopropyl-7H-pyrrolo[2,3-d]pyrimidin-5-yl)phenyl)-3-(4-(perfluoropropan-2-yl)phenyl)urea] | top ten | top ten | – | –
CC(C)n1cc(-c2ccc(NC(=O)Nc3cccc(C(F)(C(F)(F)F)C(F)(F)C(F)(F)F)c3)cc2)c2c(N)ncnc21 (centres unmarked) [APS-8-56-4, 1-(4-(4-Amino-7-isopropyl-7H-pyrrolo[2,3-d]pyrimidin-5-yl)phenyl)-3-(3-(perfluorobutan-2-yl)phenyl)urea] | – | – | top ten | –
